Assay results as given in US5877193A, “Use of N-(4-aryl-thiazol-2-yl)-sulfonamides” (Hoffmann-La Roche Inc., priority 1996, dated 1999).
Converted amounts (≈) assume the structure as drawn. Read-outs that look alike come from different tables or passages of the source.

Tests used:
kynurenin-3-hydroxylase [1] = biological target: T1, kynurenin-3-hydroxylase (Rattus norvegicus, UniProt O88867); experiment: in vitro kynurenin-3-hydroxylase inhibition (crude rat kidney mitochondrial preparation); type: biochemical; conditions: for remaining activity at 1 µM: read-out: % of control at 1 μM; for IC50: pH 7.4
T1 construct: The enzyme source is a crude rat kidney mitochondrial preparation; from tissue; host or cells: rat kidney, crude mitochondrial preparation
Source text: (§1) Determination of kynurenin-3-hydroxylase in vitro and ex vivo
(§2) The kynurenin-3-hydroxylase inhibiting activity of the compounds in accordance with the invention can be determined in vitro and ex vivo using standard methods. The preparations to be tested were examined in the tests described hereinafter, which are based on the methods published by J. B. Erickson, E. M. Flanagan, S. Russo and J. F. Reinhard [Anal. Biochem. 1992, 205: 257-262].
The enzyme source is a crude rat kidney mitochondrial preparation which, taken up in the ratio 1:70 (weight/volume) in a potassium phosphate buffer of pH 7.4, containing EGTA, is kept in the frozen state at -80° C. until used. The enzyme test for the in vitro determination differs from the ex vivo determination described hereinafter by the use of the mentioned mitochondreal preparation in place of tissue homogenates as the enzyme source and by a pre-incubation of the enzyme with the substances to be tested at 37° C. for 15 min.
(§3) Measurement of the enzyme activity
(§4) Scheme of a typical procedure carried out in an incubation tube of appropriate size or on a microtitre plate:
(§5) 25 μl of the substance to be tested in a suitable concentration (in vitro) or homogenization buffer (ex vivo)
(§6) 25 μl of potassium phosphate buffer 0.2M containing 0.4 units of glucose-6-phosphate dehydrogenase
(§7) 25 μl of the mitochondrial preparation (in vitro) or of the kidney or liver homogenate (ex vivo)
pre-incubation: 15 min at 37° C. (only in vitro)
(§8) 25 μl of the substrate L-kynurenin containing L-^3 H-3-kynurenin (0.1 μCi)
(§9) 100 μmol, magnesium chloride 4 mmol, NADPH 200 μmol, glucose-6-phosphate 3 mmol (concentration data as final concentrations)
(§10) incubation: 10 min (in vitro) or 2 min (ex vivo) at 37° C. on a shaking machine
(§11) 150 μl of a 10% suspension of active charcoal (Norit A) in water (to remove unreacted labelled substrate)
(§12) shaking for about one minute
(§13) centrifugation for 4 min at 4000 revolutions/min
(§14) transfer of 50 μl of the charcoal-free supernatant into a counting vessel
(§15) addition of 150 μl of an appropriate scintillator to count the radioactivity of the now-tritiated water, which is a measurement of the enzyme activity which exists.
The IC50 value is a measurement of the strength of the in vitro enzyme inhibition which is brought about by the tested substances. It is the concentration of test substance which brings about a 50% inhibition of the enzyme activity.

Listeria monocytogenes = experiment: antibacterial activity, MIC by microdilution; type: cell-based; conditions: 18 h
Experimental: (§16) Method for the determination of antibacterial activity
(§17) The minimum inhibitory concentration (MIC in μg/ml) was determined by the microdilution method in which an Isosensotest bouillon (Oxoid) was used and was complemented with 3% horse blood for Streptococcus and Listeria. The inoculation amount was approximately 5×10^5 CFU/ml. After incubation at 37° C. for 18 h the plates were evaluated at 650 nm. The MIC was determined as the lowest concentration of active substance which brought about a growth inhibition of ≥80% compared to the control.

Escherichia coli = experiment: antibacterial activity, MIC by microdilution; type: cell-based; conditions: ATCC25922, strain ATCC 25922, BCB 1001/04, 37° C., 18 h
Experimental: as §16, §17

Streptococcus pneumoniae = experiment: antibacterial activity, MIC by microdilution; type: cell-based
Experimental: as §16, §17

Streptococcus pyogenes = experiment: antibacterial activity, MIC by microdilution; type: cell-based; conditions: 18 h
Experimental: as §16, §17

Pseudomonas aeruginosa = experiment: antibacterial activity, MIC by microdilution; type: cell-based; conditions: 18 h
Experimental: as §16, §17

Staphylococcus aureus = experiment: antibacterial activity, MIC by microdilution; type: cell-based
Experimental: as §16, §17

Enterococcus faecalis = experiment: antibacterial activity, MIC by microdilution; type: cell-based
Experimental: as §16, §17

kynurenin-3-hydroxylase [2] = biological target: T1, kynurenin-3-hydroxylase; experiment: ex vivo kynurenin-3-hydroxylase inhibition in the liver after oral administration to rats; conditions: 2 hours; for ED50: po
Experimental: as §1, §2
The substances to be tested are administered orally to male rats of 100-140 g body weight in a dosage of 30 μmol/kg. The kidneys and a part of the liver are removed from the animals, which are decapitated after 2 hours, and frozen at -80° C. until used. In order to measure the enzyme activity, the organs are homogenized in the ratio 1:10 (weight/volume) in sucrose, containing TRIS/HCl, pH 7.4 and PMSF.
as §3, §4, §5, §6, §7, §8, §9, §10, §11, §12, §13, §14, §15
The ED50 value or, where this is not achieved, the percentage inhibition after administration of a single dosage, is a measurement of the strength of the ex vivo enzyme inhibition which is brought about by the tested substances. The ED50 value is that dosage of test substance which leads to a 50% enzyme inhibition in the investigated tissue homogenates.

[3] = strain BK23, BCB 1003/55, 3% horse blood, 37° C., read-out: MIC
[4] = ATCC49619, strain ATCC 49619, 3% horse blood, 37° C., 18 h, read-out: MIC
[5] = strain B15, BCB 1003/35, 3% horse blood, 37° C., read-out: MIC
[6] = strain BA, BCB 1004/01, 37° C., read-out: MIC
[7] = ATCC25923, strain ATCC 25923, BCB 1003/04, 37° C., 18 h, read-out: MIC
[8] = ATCC29212, strain ATCC 29212, BCB 1003/28, 37° C., 18 h, read-out: MIC

T1 sequence (O88867 whole entry): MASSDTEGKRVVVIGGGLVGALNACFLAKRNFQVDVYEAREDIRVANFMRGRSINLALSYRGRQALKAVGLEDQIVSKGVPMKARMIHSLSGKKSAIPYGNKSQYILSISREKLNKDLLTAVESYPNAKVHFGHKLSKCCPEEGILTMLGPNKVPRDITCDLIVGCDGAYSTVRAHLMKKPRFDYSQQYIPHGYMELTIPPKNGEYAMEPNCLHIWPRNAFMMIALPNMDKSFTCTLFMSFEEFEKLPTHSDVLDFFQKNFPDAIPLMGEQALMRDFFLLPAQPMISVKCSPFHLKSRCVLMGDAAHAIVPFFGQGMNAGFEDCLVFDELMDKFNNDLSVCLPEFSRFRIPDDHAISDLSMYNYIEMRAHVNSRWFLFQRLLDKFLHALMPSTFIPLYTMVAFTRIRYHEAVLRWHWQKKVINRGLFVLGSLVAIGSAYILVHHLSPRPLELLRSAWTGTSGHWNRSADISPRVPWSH

Structure (SMILES) | remaining activity at 1 µM (kynurenin-3-hydroxylase [1]) [%] | IC50 (kynurenin-3-hydroxylase [1]) [nM] | ED50 (kynurenin-3-hydroxylase [2]) [µmol/kg] | % of control 30 μM/kg p.o in the liver (kynurenin-3-hydroxylase [2]) [%] | MIC (Escherichia coli) [µg/mL] | further results
O=[N+]([O-])c1cccc(-c2csc(NS(=O)(=O)c3ccc4ccccc4c3)n2)c1 [D, Naphthalene2-sulfonic acid [4(3-nitro-phenyl)-thiazol-2-yl)-amide] | 4 | 30 | – | 20.00 | – | –
COc1ccc(S(=O)(=O)Nc2nc(-c3cc(C(F)(F)F)ccc3F)cs2)cc1 [Example 41, N-[4-(2-fluoro-5-trifluoromethyl-phenyl)-thiazol-2-yl]-4-methoxy-benzenesulfonamide] | 18 | 50 | 17 | – | – | –
COc1cc(Cc2cnc(N)nc2N)cc(OC)c1OC [TMP, trimethoprim, reference compound] | – | – | – | – | 1 (≈ 3.44 µM) | MIC (Listeria monocytogenes; [3]): 0.25 µg/mL (≈ 0.861 µM); MIC (Streptococcus pneumoniae; [4]): 4 µg/mL (≈ 13.8 µM); MIC (Streptococcus pyogenes; [5]): 2 µg/mL (≈ 6.89 µM); MIC (Pseudomonas aeruginosa; [6]): 8 µg/mL (≈ 27.6 µM); MIC (Staphylococcus aureus; [7]): 0.5 µg/mL (≈ 1.72 µM); MIC (Enterococcus faecalis; ATCC29212, 18 h): 0.125 µg/mL (≈ 0.431 µM)
Cc1cc(NS(=O)(=O)c2ccc(N)cc2)no1 [SMZ, sulfamethoxazole, reference compound] | – | – | – | – | 128 (≈ 505 µM) | MIC (Listeria monocytogenes): > 256 µg/mL; MIC (Streptococcus pneumoniae; ATCC49619, 18 h): > 256 µg/mL; MIC (Streptococcus pyogenes): 16 µg/mL (≈ 63.2 µM); MIC (Pseudomonas aeruginosa): > 256 µg/mL; MIC (Staphylococcus aureus; ATCC25923, 18 h): 32 µg/mL (≈ 126 µM); MIC (Enterococcus faecalis; ATCC29212, 18 h): > 256 µg/mL
COc1ccc(-c2csc(NS(=O)(=O)c3ccc(C)cc3)n2)cc1OC [Example 6, N-[4-(3,4-Dimethoxy-phenyl)-thiazol-2-yl]-4-methyl-benzenesulfonamide] | 4.58 | 65 | – | 54.00 | – | –
Cc1ccc(S(=O)(=O)Nc2nc(-c3cccc([N+](=O)[O-])c3)cs2)cc1 [Example 3, 4-Methyl-N-[4-(3-nitro-phenyl)-thiazol-2-yl]-benzene-sulfonamide] | – | 40 | – | 43.00 | – | –

The remaining compounds from weak to strong by IC50 (kynurenin-3-hydroxylase [1]), led by results:

remaining activity at 1 µM (kynurenin-3-hydroxylase [1]) [%] | IC50 (kynurenin-3-hydroxylase [1]) [nM] | ED50 (kynurenin-3-hydroxylase [2]) [µmol/kg] | % of control 30 μM/kg p.o in the liver (kynurenin-3-hydroxylase [2]) [%] | Structure (SMILES) | MIC (Escherichia coli) [µg/mL] | further results
5 | 44 | 9 | 23.00 | COc1ccc(S(=O)(=O)Nc2nc(-c3cccc([N+](=O)[O-])c3)cs2)cc1 [Example 8, 4-Methoxy-N-[4-(3-nitro-phenyl)-thiazol-2-yl]-benzenesulfonamide] | – | –
2.5 | 43 | 17 | – | Cc1ccc(S(=O)(=O)Nc2nc(-c3cc(C(F)(F)F)ccc3F)cs2)cc1 [Example 32, N-[4-(2-Fluoro-5-trifluoromethyl-phenyl)-thiazol-2-yl]-4-methyl-benzenesulfonamide] | – | –
2 | 26 | 4.7 | 10.00 | COc1ccc(S(=O)(=O)Nc2nc(-c3cccc([N+](=O)[O-])c3)cs2)cc1OC [Example 21, 3,4-Dimethoxy-N-[4-(3-nitro-phenyl)-thiazol-2-yl]-benzenesulfonamide] | – | –
4.7 | 22 | 5.3 | – | COc1ccc(S(=O)(=O)Nc2nc(-c3cc(C(F)(F)F)ccc3F)cs2)cc1OC [Example 46, 3,4-Dimethoxy-N-[4-(2-fluoro-5-trifluoromethyl-phenyl)-thiazol-2-yl]benzenesulfonamide] | > 256 | MIC (Listeria monocytogenes; [3]): > 256 µg/mL; MIC (Streptococcus pneumoniae; [4]): > 256 µg/mL; MIC (Streptococcus pyogenes; [5]): 64 µg/mL (≈ 138 µM); MIC (Pseudomonas aeruginosa; [6]): > 256 µg/mL; MIC (Staphylococcus aureus; [7]): 32 µg/mL (≈ 69.2 µM); MIC (Enterococcus faecalis; [8]): > 256 µg/mL
1.4 | 15 | 4.6 | – | Nc1ccc(S(=O)(=O)Nc2nc(-c3cc(C(F)(F)F)ccc3F)cs2)cc1 [Example 42, 4-Amino-N-[4-(2-fluoro-5-trifluoromethyl-phenyl)-thiazol-2-yl]benzenesulfonamide] | 256 (≈ 613 µM) | MIC (Listeria monocytogenes; [3]): > 256 µg/mL; MIC (Streptococcus pneumoniae; [4]): > 256 µg/mL; MIC (Streptococcus pyogenes; [5]): 16 µg/mL (≈ 38.3 µM); MIC (Pseudomonas aeruginosa; [6]): > 256 µg/mL; MIC (Staphylococcus aureus; [7]): 16 µg/mL (≈ 38.3 µM); MIC (Enterococcus faecalis; [8]): > 256 µg/mL
